Data reported in patent US20220132846A1, “1-PYRIDYL-PYRAZOLYL AMIDE COMPOUNDS AND PREPARATION AND USES THEREOF” (HUNAN RESEARCH INSTITUTE OF CHEMICAL INDUSTRY CO., LTD., priority 2019, published 2022).

Experiments:
[1] = system: Armyworm (Mythimna separata (Walker)); test: Test against armyworm, Potter tower method; assay type: in vivo; settings: for mortality at 12.5 µg/mL / mortality at 50 µg/mL / mortality at 500 µg/mL: Mythimna separata, third-instar larvae, after 72 hours, read-out: Activity (mortality) level against armyworm; for mortality at 12.5 µg/mL: 12.5 mg/L; for mortality at 50 µg/mL: 50 mg/L; for mortality at 500 µg/mL: 500 mg/L; for Activity against armyworm, further screening (in words): compared with chlorantraniliprole (D1)
Description: Potter tower method: the test compound was dissolved in an appropriate solvent such as N,N-dimethylformamide, and then diluted with 0.2% aqueous solution of Tween 80 to the desired concentration, Those without the test compounds were set as blank controls. The fresh and tender corn leaves were taken and cut into fragments of basically the same size, then put into a Petri dish (diameter 90 mm) padded with filter paper in advance. Ten third-instar larvae of test insects were transferred into the dish and then placed under the Potter spray tower for being sprayed, each concentration treatment was sprayed at the amount of 1 mL and replicated 3 times. The dish was covered and then placed in a chamber for culture and observed regularly, after 72 hours, the dead insects was investigated and recorded and the mean mortality was calculated. […]

[2] = system: Aphis fabae; test: Test against aphid, leaf dip method (Aphis fabae); assay type: in vivo; settings: foliar; for mortality at 12.5 µg/mL: 12.5 mg/L; for mortality at 12.5 µg/mL / mortality at 50 µg/mL / mortality at 200 µg/mL / mortality at 500 µg/mL: after 24 hours, read-out: Activity (mortality) level against Aphis fabae; for mortality at 50 µg/mL: 50 mg/L; for mortality at 200 µg/mL: 200 mg/L; for mortality at 500 µg/mL: 500 mg/L
Description: For evaluating the activity of the compounds of this invention against Homoptera pests, Aphis fabae, wheat aphids, etc. were selected as the test insects, and the activity of the compounds of this invention against aphids was measured by leaf dip method indoors.
Leaf dip method (Aphis fabae): the test compound was dissolved in an appropriate solvent such as N,N-dimethylformamide, and then diluted with 0.2% aqueous solution of Tween 80 to the desired concentration, Those without the test compounds were set as blank controls, the treatments were replicated 3 times. Horsebean seedlings with no less than twenty 3-day-old Aphis fabae per plant was cut from the stem, 5 horsebean seedlings with the insects were dipped in the test solution for 5 seconds, then inserted into a sponge filled with water after sucked dry using filter paper, then covered with a glass tube and placed in a chamber for culture. After 24 hours, the number of living and dead insects were investigated and the results were averaged. […]

Structure (SMILES) | mortality at 12.5 µg/mL [1] | mortality at 50 µg/mL [1] | mortality at 500 µg/mL [1] | mortality at 12.5 µg/mL [2] | mortality at 50 µg/mL [2] | mortality at 200 µg/mL [2] | mortality at 500 µg/mL [2] | Activity against armyworm, further screening (in words) [1] | LC50 ([2]; read-out: LC50 against Aphis fabae)
CCCNC(=O)c1cc(Cl)cc(Cl)c1N(C)C(=O)c1cc(Br)nn1-c1ncccc1Cl [Compound 3, N-[2,4-dichloro-6-[(propylamino)carbonyl]phenyl]-N-methyl-1-(3-chloro-2-pyridinyl)-3-bromo-1H-pyrazole-5-carboxamide] | 90 to 100% | 90 to 100% | 90 to 100% | 90 to 100% | 90 to 100% | 90 to 100% | 90 to 100% |  | 
CC(C)NC(=O)c1cc(Cl)cc(Cl)c1N(C)C(=O)c1cc(Br)nn1-c1ncccc1Cl [Compound 5, N-[2,4-dichloro-6-[(isopropylamino)carbonyl]phenyl]-N-methyl-1-(3-chloro-2-pyridinyl)-3-bromo-1H-pyrazole-5-carboxamide] | 90 to 100% | 90 to 100% | 90 to 100% | 90 to 100% | 90 to 100% | 90 to 100% | 90 to 100% | excellent activity | 
CN(C(=O)c1cc(Br)nn1-c1ncccc1Cl)c1c(Cl)cc(Cl)cc1C(=O)NC1CC1 [Compound 6, N-[2,4-dichloro-6-[(cyclopropylamino)carbonyl]phenyl]-N-methyl-1-(3-chloro-2-pyridinyl)-3-bromo-1H-pyrazole-5-carboxamide] | 90 to 100% | 90 to 100% | 90 to 100% | 90 to 100% | 90 to 100% | 90 to 100% | 90 to 100% |  | 
CCCCNC(=O)c1cc(Cl)cc(Cl)c1N(C)C(=O)c1cc(Br)nn1-c1ncccc1Cl [Compound 7, N-[2,4-dichloro-6-[(butylamino)carbonyl]phenyl]-N-methyl-1-(3-chloro-2-pyridinyl)-3-bromo-1H-pyrazole-5-carboxamide] |  | 90 to 100% | 90 to 100% |  | 90 to 100% | 90 to 100% | 90 to 100% |  | 
CC(C)N(C)C(=O)c1cc(Cl)cc(Cl)c1N(C)C(=O)c1cc(Br)nn1-c1ncccc1Cl [Compound 13, N-[2,4-dichloro-6-[(methyl(isopropyl)amino)carbonyl]phenyl]-N-methyl-1-(3-chloro-2-pyridinyl)-3-bromo-1H-pyrazole-5-carboxamide] |  | 90 to 100% | 90 to 100% | 90 to 100% | 90 to 100% | 90 to 100% | 90 to 100% |  | 
CN(C(=O)c1cc(Br)nn1-c1ncccc1Cl)c1c(Cl)cc(Cl)cc1C(=O)N(C)C1CC1 [Compound 14, N-[2,4-dichloro-6-[(methyl(cyclopropyl)amino)carbonyl]phenyl]-N-methyl-1-(3-chloro-2-pyridinyl)-3-bromo-1H-pyrazole-5-carboxamide] | 90 to 100% | 90 to 100% | 90 to 100% | 90 to 100% | 90 to 100% | 90 to 100% | 90 to 100% | excellent activity | 
CCCN(CCC)C(=O)c1cc(Cl)cc(Cl)c1N(C)C(=O)c1cc(Br)nn1-c1ncccc1Cl [Compound 16, N-[2,4-dichloro-6-[(dipropylamino)carbonyl]phenyl]-N-methyl-1-(3-chloro-2-pyridinyl)-3-bromo-1H-pyrazole-5-carboxamide] |  | 90 to 100% | 90 to 100% | 90 to 100% | 90 to 100% | 90 to 100% | 90 to 100% |  | 
CCN(C(=O)c1cc(Br)nn1-c1ncccc1Cl)c1c(Cl)cc(Cl)cc1C(=O)N(C)C [Compound 17, N-[2,4-dichloro-6-[(dimethylamino)carbonyl]phenyl]-N-ethyl-1-(3-chloro-2-pyridinyl)-3-bromo-1H-pyrazole-5-carboxamide] | 90 to 100% | 90 to 100% | 90 to 100% | 90 to 100% | 90 to 100% | 90 to 100% | 90 to 100% |  | 
CCN(C)C(=O)c1cc(Cl)cc(Cl)c1N(CC)C(=O)c1cc(Br)nn1-c1ncccc1Cl [Compound 18, N-[2,4-dichloro-6-[(methyl(ethyl)amino)carbonyl]phenyl]-N-ethyl-1-(3-chloro-2-pyridinyl)-3-bromo-1H-pyrazole-5-carboxamide] |  | 90 to 100% | 90 to 100% | 90 to 100% | 90 to 100% | 90 to 100% | 90 to 100% |  | 
CCCN(C(=O)c1cc(Br)nn1-c1ncccc1Cl)c1c(Cl)cc(Cl)cc1C(=O)N(C)C [Compound 19, N-[2,4-dichloro-6-[(dimethylamino)carbonyl]phenyl]-N-propyl-1-(3-chloro-2-pyridinyl)-3-bromo-1H-pyrazole-5-carboxamide] |  | 90 to 100% | 90 to 100% | 90 to 100% | 90 to 100% | 90 to 100% | 90 to 100% |  | 
CCCN(C)C(=O)c1cc(Cl)cc(Cl)c1N(CCC)C(=O)c1cc(Br)nn1-c1ncccc1Cl [Compound 20, N-[2,4-dichloro-6-[(methyl(propyl)amino)carbonyl]phenyl]-N-propyl-1-(3-chloro-2-pyridinyl)-3-bromo-1H-pyrazole-5-carboxamide] |  | 90 to 100% | 90 to 100% |  |  | 90 to 100% | 90 to 100% |  | 
CN(C)C(=S)c1cc(Cl)cc(Cl)c1N(C)C(=O)c1cc(Br)nn1-c1ncccc1Cl [Compound 21, N-[2,4-dichloro-6-[(dimethylamino)thioxomethyl]phenyl]-N-methyl-1-(3-chloro-2-pyridinyl)-3-bromo-1H-pyrazole-5-carboxamide] |  | 90 to 100% | 90 to 100% | 90 to 100% | 90 to 100% | 90 to 100% | 90 to 100% |  | 
CC(C)N(C)C(=S)c1cc(Cl)cc(Cl)c1N(C)C(=O)c1cc(Br)nn1-c1ncccc1Cl [Compound 22, N-[2,4-dichloro-6-[(methyl(isopropyl)amino)thioxomethyl]phenyl]-N-methyl-1-(3-chloro-2-pyridinyl)-3-bromo-1H-pyrazole-5-carboxamide] | 90 to 100% | 90 to 100% | 90 to 100% | 90 to 100% | 90 to 100% | 90 to 100% | 90 to 100% |  | 
CCN(CC)C(=S)c1cc(Cl)cc(Cl)c1N(C)C(=O)c1cc(Br)nn1-c1ncccc1Cl [Compound 23, N-[2,4-dichloro-6-[(diethylamino)thioxomethyl]phenyl]-N-methyl-1-(3-chloro-2-pyridinyl)-3-bromo-1H-pyrazole-5-carboxamide] | 90 to 100% | 90 to 100% | 90 to 100% |  |  | 90 to 100% | 90 to 100% |  | 
O=[N+]([O-])/N=C1\NCCN1Cc1ccc(Cl)nc1 [imidacloprid, reference compound] |  |  |  |  |  |  |  |  | < 1 µg/mL
